Key:
Assay in all cases: relative viability (nuclei count vs DMSO), 5 days (fraction); higher = more cells survive
NCI-H1666 = tested on: NCI-H1666
Summary of the method: (§1)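 Relative viability was taken as the ratio of nuclei in treated wells to nuclei in vehicle wells. Lung cancer cell lines in 1536-well plates received compounds by pin tool one day after seeding, either one drug alone or a fixed anchor-drug dose plus five library-drug doses (not always all listed) in √10 steps. Nuclei were counted on 4× images after 5 days of treatment, and values are medians of duplicate plates.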

NCI-H322M = tested on: NCI-H322M
Summary of the method: as §1

NCI-H1792 = tested on: NCI-H1792
Summary of the method: as §1

NCI-H1944 = tested on: NCI-H1944
Summary of the method: as §1

HCC-827 = tested on: HCC-827
Summary of the method: as §1

RERF-LC-KJ = tested on: RERF-LC-KJ
Summary of the method: as §1

LCLC-103H = tested on: LCLC-103H
Summary of the method: as §1

NCI-H358 = tested on: NCI-H358
Summary of the method: as §1

NCI-H1793 = tested on: NCI-H1793
Summary of the method: as §1

ABC-1 = tested on: ABC-1
Summary of the method: as §1

NCI-H520 = tested on: NCI-H520
Summary of the method: as §1

LU99A = tested on: LU99A
Summary of the method: as §1

NCI-H2347 = tested on: NCI-H2347
Summary of the method: as §1

NCI-H1395 = tested on: NCI-H1395
Summary of the method: as §1

CAL-12T = tested on: CAL-12T
Summary of the method: as §1

NCI-H2126 = tested on: NCI-H2126
Summary of the method: as §1

SK-LU-1 = tested on: SK-LU-1
Summary of the method: as §1

NCI-H1755 = tested on: NCI-H1755
Summary of the method: as §1

NCI-H3122 = tested on: NCI-H3122
Summary of the method: as §1

LXF-289 = tested on: LXF-289
Summary of the method: as §1

HCC-44 = tested on: HCC-44
Summary of the method: as §1

CN1CCN(CCOc2cc(OC3CCOCC3)c3c(Nc4c(Cl)ccc5c4OCO5)ncnc3c2)CC1 [Saracatinib] + C[C@]1(O)C[C@@H](c2nc(-c3ccc4ccc(-c5ccccc5)nc4c3)c3c(N)nccn32)C1 [Linsitinib] (partner 1 µM)
relative viability (NCI-H1666; first compound 0.02 µM): 0.81
relative viability (NCI-H1666; first compound 0.2 µM): 0.909
relative viability (NCI-H1666; first compound 0.6325 µM): 0.815
relative viability (NCI-H1666; first compound 2 µM): 0.844
relative viability (NCI-H322M; first compound 0.02 µM): 0.999
relative viability (NCI-H322M; first compound 0.2 µM): 0.962
relative viability (NCI-H322M; first compound 0.6325 µM): 0.924
relative viability (NCI-H322M; first compound 2 µM): 0.569
relative viability (NCI-H1792; first compound 0.02 µM): 0.533
relative viability (NCI-H1792; first compound 0.2 µM): 0.374
relative viability (NCI-H1792; first compound 0.6325 µM): 0.647
relative viability (NCI-H1792; first compound 2 µM): 0.384
relative viability (NCI-H1944; first compound 0.02 µM): 1.21
relative viability (NCI-H1944; first compound 0.6325 µM): 0.971
relative viability (NCI-H1944; first compound 2 µM): 0.704
relative viability (HCC-827; first compound 0.02 µM): 0.981
relative viability (HCC-827; first compound 0.2 µM): 0.739
relative viability (HCC-827; first compound 0.6325 µM): 0.338
relative viability (HCC-827; first compound 2 µM): 0.158
relative viability (RERF-LC-KJ; first compound 0.02 µM): 0.938
relative viability (RERF-LC-KJ; first compound 0.2 µM): 0.83
relative viability (RERF-LC-KJ; first compound 0.6325 µM): 0.883
relative viability (RERF-LC-KJ; first compound 2 µM): 0.813
relative viability (LCLC-103H; first compound 0.02 µM): 1.18
relative viability (LCLC-103H; first compound 0.2 µM): 0.873
relative viability (LCLC-103H; first compound 0.6325 µM): 1.04
relative viability (LCLC-103H; first compound 2 µM): 1.04
relative viability (NCI-H358; first compound 0.02 µM): 0.813
relative viability (NCI-H358; first compound 0.2 µM): 0.51
relative viability (NCI-H358; first compound 0.6325 µM): 0.403
relative viability (NCI-H358; first compound 2 µM): 0.279
relative viability (NCI-H1793; first compound 0.02 µM): 0.876
relative viability (NCI-H1793; first compound 0.2 µM): 0.447
relative viability (NCI-H1793; first compound 0.6325 µM): 0.993
relative viability (NCI-H1793; first compound 2 µM): 0.783
relative viability (ABC-1; first compound 0.02 µM): 0.61
relative viability (ABC-1; first compound 0.2 µM): 0.902
relative viability (ABC-1; first compound 0.6325 µM): 0.677
relative viability (ABC-1; first compound 2 µM): 0.753
relative viability (NCI-H520; first compound 0.02 µM): 0.911
relative viability (NCI-H520; first compound 0.2 µM): 0.786
relative viability (NCI-H520; first compound 0.6325 µM): 0.825
relative viability (NCI-H520; first compound 2 µM): 0.504
relative viability (LU99A; first compound 0.02 µM): 0.575
relative viability (LU99A; first compound 0.2 µM): 0.372
relative viability (LU99A; first compound 0.6325 µM): 0.465
relative viability (LU99A; first compound 2 µM): 0.411
relative viability (NCI-H2347; first compound 0.02 µM): 0.916
relative viability (NCI-H2347; first compound 0.2 µM): 0.902
relative viability (NCI-H2347; first compound 0.6325 µM): 1.13
relative viability (NCI-H2347; first compound 2 µM): 0.936
relative viability (NCI-H1395; first compound 0.02 µM): 1.08
relative viability (NCI-H1395; first compound 0.2 µM): 0.995
relative viability (NCI-H1395; first compound 0.6325 µM): 1.27
relative viability (NCI-H1395; first compound 2 µM): 0.876
relative viability (CAL-12T; first compound 0.02 µM): 0.805
relative viability (CAL-12T; first compound 0.2 µM): 0.776
relative viability (CAL-12T; first compound 0.6325 µM): 0.863
relative viability (CAL-12T; first compound 2 µM): 1.03
relative viability (NCI-H2126; first compound 0.02 µM): 0.74
relative viability (NCI-H2126; first compound 0.2 µM): 0.649
relative viability (NCI-H2126; first compound 0.6325 µM): 0.612
relative viability (NCI-H2126; first compound 2 µM): 0.549
relative viability (SK-LU-1; first compound 0.02 µM): 0.92
relative viability (SK-LU-1; first compound 0.2 µM): 0.752
relative viability (SK-LU-1; first compound 0.6325 µM): 0.639
relative viability (SK-LU-1; first compound 2 µM): 0.374
relative viability (NCI-H1755; first compound 0.02 µM): 1
relative viability (NCI-H1755; first compound 0.2 µM): 0.707
relative viability (NCI-H1755; first compound 0.6325 µM): 0.95
relative viability (NCI-H1755; first compound 2 µM): 0.896
relative viability (NCI-H3122; first compound 0.02 µM): 1.05
relative viability (NCI-H3122; first compound 0.6325 µM): 0.842
relative viability (NCI-H3122; first compound 2 µM): 0.767
relative viability (LXF-289; first compound 0.02 µM): 0.979
relative viability (LXF-289; first compound 0.2 µM): 0.92
relative viability (LXF-289; first compound 0.6325 µM): 0.968
relative viability (LXF-289; first compound 2 µM): 0.963
relative viability (HCC-44; first compound 0.02 µM): 0.729
relative viability (HCC-44; first compound 0.2 µM): 0.51
relative viability (HCC-44; first compound 0.6325 µM): 0.823
relative viability (HCC-44; first compound 2 µM): 0.717

— the supplement of paper PMC10307832
